How the values were obtained:
[1] = Storage stability of hydroxystilbenes (residual amount by HPLC); type: physicochemical; settings: for remaining at 1032 h: pH 8, left 43 days at room temperature, sample with PEG-60 hydrogenated castor oil in citric acid buffer solution, HPLC
Procedure: Various hydroxystilbenes shown in the following Table 1 were dissolved in ethanol, thereby preparing a 1% solution. The solution was stirred together with PEG-60 hydrogenated castor oil which was in an amount 10 times the amount of the solution with respect to 1 part of the ethanol solution. Thereafter, the resultant was diluted by 100-fold with a citric acid buffer solution, thereby preparing a sample.
pH of the sample prepared as above was regulated to be 8, and the sample was left as is for a month and a half (43 days) at room temperature. Thereafter, by means of HPLC, a residual amount of various hydroxystilbenes in each sample was determined. Analysis conditions for HPLC are as follows.
• Column: C18 5 µm, 4.6 mm x 250 mm • Flow rate: 1 ml/min • Column temperature: 40°C • Detection wavelength: 310 nm • Developing solution: acetonitrile/water = 20/80 (volume ratio, containing 0.1% by volume of acetic acid and 0.1% by volume of triethanolamine) [Table 1]

NF-κB = NF-κB intranuclear transition in UVB-irradiated dermal fibroblasts (Western blotting); type: cell-based; settings: Homo sapiens, light or radiation study; HDF cells, UVB (20 mJ) irradiated, 6 hours; pterostilbene 5 ppm, no carotenoid; not irradiated = 100 %, irradiated without additive = 684%; read-out: Ratio of amount of NF-κB moving into nucleus
Text: NFκB is considered to be involved in skin aging at an early stage. Therefore, an NFκB intranuclear transition inhibition rate of carotenoid and pterostilbene was examined.
Normal human dermal fibroblasts (HDF cells, KURABO INDUSTRIES LTD.) were subcultured three times according to a common method, in a GlutaMax medium (D-MEM, Gibco) supplemented with 10% fetal bovine serum (FBS, Gibco). The subcultured HDF cells were caused to adhere to a container at 1,000,000 cells/25 cm^2 and put in a serum starvation state for a day. Thereafter, the HDF cells were washed with phosphate buffered saline (PBS).
The cells were irradiated with UVB (20 mJ) emitted from right above the cells, and then the medium was replaced with a medium obtained by adding 0.1% FBS to D-MEM containing the carotenoid and the pterostilbene shown in Tables 6 and 7.
6 hours after the replacement of the medium, nuclei were extracted using NucBuster (Novagen), and the amount of NF-κB moved into the nuclei was determined by Western blotting (WB) (primary antibody: NF-κB p65 Rabbit Monoclonal Antibody (Cat. #1546-1), EPITOMICS).
Moreover, in Experiment 1 and Experiment 7, for comparison, the cells were not irradiated with UVB.

Which remaining at 1032 h [1] does the source give for `COc1cc(/C=C/c2ccc(O)cc2)cc(OC)c1` [Pterostilbene, trans-1-(3,5-Diemthoxyphenyl)-2-(4-hydroxyphenyl)ethylene] here?
Its remaining at 1032 h is 99%.

What about the activity at 5 ppm (NF-κB) of the same compound?
The activity at 5 ppm was 420%.

For `COc1cc(/C=C/c2cc(O)cc(O)c2)ccc1O` [(E)-3,4',5-trihydroxy-3'-methoxystilbene], which remaining at 1032 h [1] is on record?
The remaining at 1032 h was 46%.

Which remaining at 1032 h [1] does the source give for `Oc1cc(O)cc(/C=C/c2ccc(O)c(O)c2)c1` [Piceatannol] here?
Its remaining at 1032 h is 26%.

Which “Residual amount (%)” value ([1]; citric acid buffer, 1032 h, pH 8) does the source give for `O=C(O)C1OC(Oc2ccc(C=Cc3cc(O)cc(O)c3)cc2)C(O)C(O)C1O` [trans-resveratol 4'-O-beta-D-glucuronide] here?
Its value is 73%.

With `Oc1ccc(C=Cc2cc(O)cc(O)c2)cc1` [Resveratrol] as the compound, how does the remaining at 1032 h [1] read?
The remaining at 1032 h was 54%.
